Assay results from patent US20080027042A1, “Novel Aminopyridine Derivatives Having Aurora a Selective Inhibitory Action” (priority 2004, published 2008).

Assays:
Aurora A = target: T1, Aurora A (Homo sapiens, UniProt O14965); assay: Aurora A inhibitory action (33P-ATP kinase assay, Kemptide substrate); type: biochemical; details: 20 μM ATP, 30° C., 20 minutes
T1 construct: histidine tag (N); made in house; host or cells: Escherichia coli BL21-CodonPlus(DE3)-RIL
T1 sequence (O14965 1-403): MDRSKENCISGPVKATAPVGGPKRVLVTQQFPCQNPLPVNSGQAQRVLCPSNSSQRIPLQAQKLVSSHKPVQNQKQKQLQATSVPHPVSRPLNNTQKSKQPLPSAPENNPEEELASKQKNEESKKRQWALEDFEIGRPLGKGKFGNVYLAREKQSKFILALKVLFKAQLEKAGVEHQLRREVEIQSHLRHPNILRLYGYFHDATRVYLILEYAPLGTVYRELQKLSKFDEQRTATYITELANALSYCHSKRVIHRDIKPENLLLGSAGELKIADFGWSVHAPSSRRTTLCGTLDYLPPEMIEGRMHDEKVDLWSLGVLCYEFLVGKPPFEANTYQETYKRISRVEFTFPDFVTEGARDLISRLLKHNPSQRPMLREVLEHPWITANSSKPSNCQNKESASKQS
Method in brief: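 His-tagged Aurora A expressed in E. coli, Ni-purified; reaction in 50 mM Tris pH 7.4, 15 mM Mg acetate, 0.2 mM EDTA with 100 μM Kemptide, 20 μM ATP plus [γ-33P]ATP, 20 min at 30 °C. Phosphopeptide captured on P81 filters and counted by scintillation; DMSO control.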

[1] = system: Human cervical cancer cells (HeLa S3); assay: Effect by combined use of drugs in cells (with paclitaxel), WST-8 method; type: cell-based; details: three days; for inhibition at 0.03 µM: HeLa S3, compound 0.03 μM alone; for inhibition at 0.1 µM: HeLa S3, compound 0.1 μM alone; for inhibition at 1 µM: HeLa S3, compound 1.0 μM alone; for inhibition at 0.3 µM: HeLa S3, compound 0.3 μM alone
Excerpt: Method for Judging the Effect by Combined Use of Drugs in Cells
Fetal calf serum (FCS) was purchased from Moregate Biotech, DMEM medium from Invitrogen Corp., paclitaxel (tradename: Taxol) from Sigma-Aldrich, Inc., and WST-8 from Kishida Chemical Co., Ltd.
(§1) Human cervical cancer cells (HeLa S3) were obtained from the American Type Culture Collection (ATCC).
(§2) c) Method of Judging the Effect
Cells were suspended in a DMEM medium containing 10% FCS, and the cell suspension was dispensed to two 96-well plastic plates at a rate of 750 cells/100 microliters per well. The plates were incubated overnight in 5% CO2-95% air at 37° C. A drug was subjected to graded dilution in dimethylsulfoxide and flurther diluted with DMSO or with a DMEM medium containing 10% FCS and also containing 2 nM paclitaxel. Then, the dilutions were each dispensed to one of the plates on which cells had been disseminated, at a rate of 100 microliters per well. The final concentration of paclitaxel at this stage was 1 nM. Also, the concentrations in the case of sole administration of the compound according to the invention were 0.03, 0.1, 0.3, 1 and 3 μM. The plates were incubated for further three days in 5% CO2-95% air at 37° C. Cell growth after incubation was measured by the WST-8 method (H. Tominaga, et al., Anal. Commun., 36, 47-50 (1999)). Here, the WST-8 method refers to a method in which 20 microliters of a WST-8 reagent solution is added to each well, incubation is conducted at 37° C. for 45 minutes, the plate is stirred, and the amount of formazan produced is measured by a colorimetric method to determine the inhibitory rate of the drug. The growth inhibitory effects of paclitaxel and of the compound according to the invention were determined, with the value obtained in sole treatment of DMSO being defined as 0%.

Aurora B = target: T2, Aurora B (Homo sapiens, UniProt Q96GD4); assay: Aurora B inhibitory action (33P-ATP kinase assay, Kemptide substrate); type: biochemical; details: 100 μM ATP, 30° C., 20 minutes
T2 construct: histidine tag (N); made in house; host or cells: Escherichia coli BL21-CodonPlus(DE3)-RIL
T2 sequence (Q96GD4 whole entry): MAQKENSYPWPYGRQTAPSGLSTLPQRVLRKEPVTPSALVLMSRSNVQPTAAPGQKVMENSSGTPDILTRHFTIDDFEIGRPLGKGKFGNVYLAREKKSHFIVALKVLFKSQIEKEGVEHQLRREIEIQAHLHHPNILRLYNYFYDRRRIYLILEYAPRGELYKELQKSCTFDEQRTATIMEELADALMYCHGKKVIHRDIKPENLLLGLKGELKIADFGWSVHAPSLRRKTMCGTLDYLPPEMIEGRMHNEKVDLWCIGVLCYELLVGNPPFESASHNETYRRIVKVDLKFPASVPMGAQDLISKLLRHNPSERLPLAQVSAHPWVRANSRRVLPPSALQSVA
Method in brief: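 His-tagged Aurora B expressed in E. coli, reacted with 100 μM Kemptide, 100 μM ATP plus [γ-33P]ATP in Tris pH 7.4, 15 mM Mg acetate, 0.2 mM EDTA, 30 °C, 20 min. Peptide captured on P81 filters for scintillation counting; compounds added from DMSO dilutions.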

[2] = system: Human cervical cancer cells (HeLa S3); assay: Cell growth inhibitory effect, WST-8 method; type: cell-based; details: 72 h, HeLa S3, three days incubation
Excerpt: Method for Judging the Pharmaceutical Effect Using cells
Fetal calf serum (FCS) was purchased from Moregate Biotech, and DMEM medium was purchased from Invitrogen Corp. WST-8 was purchased from Kishida Chemical Co., Ltd.
as §1, §2
Cells were suspended in a DMEM medium containing 10% FCS, and the cell suspension was dispensed to a 96-well plastic plate at a rate of 750 cells/l 00 microliters per well. The plate was incubated overnight in 5% CO2-95% air at 37° C. A drug was subjected to graded dilution in dimethylsulfoxide and further diluted with a DMEM medium containing 10% FCS. Then, the dilution was dispensed to the plate on which cells had been disseminated, at a rate of 100 microliters per well. The plate was incubated for further three days in 5% CO2-95% air at 37° C. Cell growth after incubation was measured by the WST-8 method (H. Tominaga, et al., Anal. Commun., 36, 47-50 (1999)). Here, the WST-8 method refers to a method in which 20 microliters of a WST-8 reagent solution is added to each well, incubation is conducted at 37° C. for 45 minutes, the plate is stirred, and the amount of formazan produced is measured by a calorimetric method to determine the inhibitory rate of the drug. The concentration for 50% growth inhibition (EC50, IM) of the compound was determined.

[3] = HeLa S3, compound 0.03 μM + paclitaxel 1 nM
[4] = Homo sapiens, HeLa S3, 72 h, read-out: Cell growth inhibitory effect by sole administration of the compound of Example (%)
[5] = HeLa S3, compound 0.1 μM + paclitaxel 1 nM
[6] = HeLa S3, compound 1.0 μM + paclitaxel 1 nM
[7] = HeLa S3, compound 0.3 μM + paclitaxel 1 nM

| SMILES | IC50 (Aurora A) | Cell growth inhibitory effect by combined administration of paclitaxel and the compound of Example (%) [1, 3] | inhibition at 0.03 µM [1, 4] | IC50 (Aurora B) | IC50 [2] | Cell growth inhibitory effect by combined administration of paclitaxel and the compound of Example (%) [1, 5] | inhibition at 0.1 µM [1, 4] | Cell growth inhibitory effect by combined administration of paclitaxel and the compound of Example (%) [1, 6] | inhibition at 1 µM [1, 4] | Cell growth inhibitory effect by combined administration of paclitaxel and the compound of Example (%) [1, 7] | inhibition at 0.3 µM [1, 4] | Cell growth inhibitory effect by combined administration of paclitaxel and the compound of Example (%) ([1]; HeLa S3, compound 3.0 μM + paclitaxel 1 nM) | inhibition at 3 µM ([1]; Homo sapiens, HeLa S3, 72 h, HeLa S3, compound 3.0 μM alone, read-out: Cell growth inhibitory effect by sole administration of the compound of Example (%)) |
| --- | --- | --- | --- | --- | --- | --- | --- | --- | --- | --- | --- | --- | --- |
| CN(C)C(=O)c1cc(CN2CCN(C(=O)c3cccc(Cl)c3F)CC2)nc(Nc2nccs2)c1.O=C(O)C(F)(F)F [Example 86, 2-((4-(3-chloro-2-fluorobenzoyl)piperazin-1-yl)methyl)-N,N-dimethyl-6-(thiazol-2-ylamino)isonicotinamide trifluoroacetate] | 0.66 nM | 71.6% | 6.2% | 560 nM | 510 nM |  |  |  |  |  |  |  |  |
| Cc1cccc(C(=O)N2CCN(Cc3cccc(Nc4nccs4)n3)CC2)c1F [Example 8, 6-((4-(2-fluoro-3-methylbenzoyl)piperazin-1-yl)methyl)-N-thiazol-2-ylpyridin-2-amine] | 1.9 nM |  |  | 1400 nM | 250 nM | 87.1% | 4.6% |  |  |  |  |  |  |
| Cn1nnnc1-c1cc(CN2CCN(C(=O)c3cccc(Cl)c3F)CC2)nc(Nc2nccs2)c1 [Example 106, 6-((4-(3-chloro-2-fluorobenzoyl)piperazin-1-yl)methyl)-4-(1-methyl-1H-tetrazol-5-yl)-N-thiazol-2-ylpyridin-2-amine] | 0.88 nM |  |  | 400 nM | 400 nM | 76.7% | 6.1% |  |  |  |  |  |  |
| O=C(c1cccc(Cl)c1F)N1CCN(Cc2cncc(Nc3cc[nH]n3)n2)CC1 [Example 50, 6-((4-(3-chloro-2-fluorobenzoyl)piperazin-1-yl)methyl)-N-1H-pyrazol-3-ylpyrazin-2-amine] | 2.2 nM |  |  | 5400 nM | 3600 nM |  |  | 82.0% | 6% |  |  |  |  |
| O=C(c1cccc(Cl)c1F)N1CCN(Cc2cncc(Nc3nccs3)n2)CC1 [Example 58, 6-((4-(3-chloro-2-fluorobenzoyl)piperazin-1-yl)methyl)-N-thiazol-2-ylpyrazin-2-amine] | 4.8 nM |  |  | 9900 nM | 3000 nM |  |  | 81.4% | 0% |  |  |  |  |
| COCc1cc(CN2CCN(C(=O)c3cccc(Cl)c3F)CC2)nc(Nc2nccs2)c1 [Example 95, 6-((4-(3-chloro-2-fluorobenzoyl)piperazin-1-yl)methyl)-4-(methoxymethyl)-N-thiazol-2-ylpyridin-2-amine] | 0.59 nM | 73.5% | 0% | 250 nM | 220 nM |  |  |  |  |  |  |  |  |
| N#Cc1cccc(C(=O)N2CCN(Cc3cccc(Nc4ncc(Cl)s4)n3)CC2)c1 [Example 71, 6-((4-(3-cyanobenzoyl)piperazin-1-yl)methyl)-N-(5-chlorothiazol-2-yl)pyridin-2-amine] | 3 nM |  |  | 370 nM | 3000 nM |  |  | 60.7% | 13.2% |  |  |  |  |
| O=C(c1cccc(Cl)c1F)N1CCN(Cc2cc(CO)cc(Nc3nccs3)n2)CC1 [Example 89, (2-((4-(3-chloro-2-fluorobenzoyl)piperazin-1-yl)methyl)-6-(thiazol-2-ylamino)pyridin-4-yl)methanol] | 0.38 nM |  |  | 200 nM | 360 nM | 85.8% | 19.1% |  |  |  |  |  |  |
| Cc1cc(Nc2cccc(CN3CCN(C(=O)c4cccc(C(F)(F)F)c4F)CC3)n2)n[nH]1 [Example 29, 6-((4-(2-fluoro-3-(trifluoromethyl)benzoyl)piperazin-1-yl)methyl)-N-(5-methyl-1H-pyrazol-3-yl)pyridin-2-amine] | 0.97 nM |  |  | 590 nM | 3300 nM |  |  |  |  | 77.3% | 0% |  |  |
| O=C(c1cccc(Cl)c1F)N1CCN(Cc2cc(-c3ncn[nH]3)cc(Nc3nccs3)n2)CC1 [Example 108, 6-((4-(3-chloro-2-fluorobenzoyl)piperazin-1-yl)methyl)-N-thiazol-2-yl-4-(1H-1,2,4-triazol-5-yl)pyridin-2-amine] | 0.59 nM |  |  | 800 nM | 1200 nM |  |  | 86.4% | 17.2% |  |  |  |  |
| O=C(c1cccs1)N1CCN(Cc2cccc(Nc3ncc(Cl)s3)n2)CC1 [Example 66, 6-((4-(2-thienylcarbonyl)piperazin-1-yl)methyl)-N-(5-chlorothiazol-2-yl)pyridin-2-amine] | 3.4 nM |  |  | 250 nM | 2900 nM |  |  | 60.9% | 7.2% |  |  |  |  |
| O=C(c1cccc(Cl)c1F)N1CCN(Cc2cccc(Nc3ncc(Cl)s3)n2)CC1 [Example 75, 6-((4-(3-chloro-2-fluorobenzoyl)piperazin-1-yl)methyl)-N-(5-chlorothiazol-2-yl)pyridin-2-amine] | 0.44 nM |  |  | 89 nM | 11000 nM |  |  |  |  | 91.5% | 27.1% |  |  |
| O=C(c1ccccc1C(F)(F)F)N1CCN(Cc2cccc(Nc3ncns3)n2)CC1 [Example 39, 6-((4-(2-(trifluoromethyl)benzoyl)piperazin-1-yl)methyl)-N-1,2,4-thiadiazol-5-ylpyridin-2-amine] | 67 nM |  |  | 9100 nM | 11000 nM |  |  |  |  |  |  | 72.2% | 5.4% |
| O=C(c1ccco1)N1CCN(Cc2cccc(Nc3ncc(Cl)s3)n2)CC1 [Example 62] | 12 nM |  |  | 380 nM | 860 nM | 68.0% | 2.9% |  |  |  |  |  |  |
